# Laboratory results as given in patent US20030232906A1, “Stabilized coating compositions containing isothiazolone” (priority 2002, published 2003).
# Like-named read-outs stand apart in the source and are kept apart here.
# Type: physicochemical
# Conditions: for retention of 2-n-octyl-3-isothiazolone active ingredient after 14 days: 1% solution in 95% propylene glycol/5% water, pH 10.0-10.1 (NaOH), no metal salt stabilizers
# Procedure: A 2-n-octyl-3-isothiazolone solution (1%) was prepared in 95% propylene glycol/5% water and the pH was adjusted to 10.0-10.1 with NaOH; no metal salt stabilizers were added to the mixture. Samples of this mixture were then stored at ambient temperature (approximately 25° C.) and also in an oven at 40° C. After 14 days, there was no loss of 2-n-octyl-3-isothiazolone active ingredient (100% retention) for samples stored at either 25° C. or 40° C.
compound,measurement,setting,value
"CCCCCCCCn1sccc1=O [2-n-octyl-3-isothiazolone, 2-n-Octyl-3-isothiazolone]",stability at high pH in the absence of amines (in words),,stable
same,retention of 2-n-octyl-3-isothiazolone active ingredient after 14 days,40° C.,100%
same,retention of 2-n-octyl-3-isothiazolone active ingredient after 14 days,approx. 25° C.,100%
